# Where “and” joins values, the source holds several entries; their conditions need not be identical. Identical values can stand only once. Like-named read-outs stand apart in the source and are kept apart here.
# Legend:
# [1] = tested on: uninfected HeLa-ACE2 cells; conditions: Hela-ACE2 Uninfected Cell Toxicity; for qAC50: relation in column qAC50 Mode, unit not given
# in vitro [2] = conditions: human, uninfected HeLa-ACE2 cells
# HeLa-ACE2 cells [3] = assay: cells; conditions: Homo sapiens
# in vitro [4] = conditions: CD1, mouse, microsomes, pH 7.4
# [5] = female, BALB/c, mouse, 1 h, 2 μM, pH 7.4
# [6] = Human liver microsomal stability assay; conditions: human, liver microsomes, pH 7.4
# SARS-CoV-2 [7] = conditions: for Data Mode: Hela-ACE2 % Positive SARS-CoV-2
# [8] = Mouse liver microsomal stability assay; conditions: CD1, mouse, liver microsomes, pH 7.4
# PL^pro = PL^pro (Severe acute respiratory syndrome coronavirus 2, UniProt P0DTD1); conditions: 20 μM compound, 5 μM enzyme, average of triplicates with SD
# Plasma stability = conditions: female, BALB/c, mouse, plasma, pH 7.4
# physchem [9] = conditions: pH 7.4
# SARS-CoV-2 [10] = assay: microbe, parasite or virus in culture
# in vitro [11] = conditions: human, microsomes, pH 7.4
# HeLa-ACE2 cells [12] = tested on: HeLa-ACE2 cells
# in vitro [13] = conditions: PAMPA
# physchem [14] = conditions: 25 °C, kinetic from dmso stock
# SARS-CoV-2 PL^pro = SARS-CoV-2 PL^pro (Severe acute respiratory syndrome coronavirus 2, UniProt P0DTD1); assay type: biochemical
# SARS-CoV-2 [15] = conditions: Vero CCL-81 cells, 1 μM
# [16] = human, microsomes
# [17] = uninfected HeLa-ACE2 CC50, supplement summary
# [18] = uninfected HeLa-ACE2 CC50, uninfected HeLa-ACE2 cells, average of triplicates
# [19] = HeLa-ACE2, read-out: HeLa-ACE2 Total cells EC50
# [20] = Hela-ACE2 % Positive SARS-CoV-2, curve fit
# [21] = Hela-ACE2 CoV-2 Total Cell count
# [22] = Hela-ACE2 CoV-2 Total Cell count, curve fit
compound,measurement,setting,value
CC(c1cccc2ccccc12)N1CCC(C(=O)NCc2ccc(Cl)cc2)CC1 (centres unmarked) [Compound 13],Data Mode,[1],decreasing
same,S0,[1]; curve fit,-6.029
same,Sinf,[1]; curve fit,-100
same,nHill,[1]; curve fit,4
same,qAC50,[1],1.885e-5
same,AC50 at 24 h,in vitro [2],18.9 µM
same,CC50 at 24 h,in vitro [2]; [17],18.9 µM
same,CC50 at 24 h,in vitro [2]; [18],18.8 ± 0.2 µM
same,EC50,HeLa-ACE2 cells [3]; [19],> 9.61 µM
same,AC50,"HeLa-ACE2 cells [3]; HeLa-ACE2, read-out: Log AC50 (converted)",> 9.61 µM
same,EC50,"HeLa-ACE2 cells [3]; HeLa-ACE2, read-out: qAC50",> 9.61 µM
same,microsomal CLint at 0.5 μM,in vitro [4],302 µL/min/mg
same,plasma stability remaining 60 min,[5],46.83%
same,half-life at 0.5 μM,[6],15.1 min
same,CoV2 Efficacy (delta S0:Sinf),SARS-CoV-2 [7]; HeLa-ACE2,104.884
same,SI (average CC50/average EC50),SARS-CoV-2 [7]; HeLa-ACE2,5
same,Data Mode,SARS-CoV-2 [7],decreasing
same,S0,SARS-CoV-2 [7]; [20],4.884
same,Sinf,SARS-CoV-2 [7]; [20],-100
same,nHill,SARS-CoV-2 [7]; [20],3.857
same,SI (average CC50/average EC50),SARS-CoV-2 [7]; supplement summary,5.083
same,Tags (tier),SARS-CoV-2 [7]; tier of the screening summary,"3 (EC50< 10 µM, Efficacy >40%, SI > 5 or CC50 not reached at maximum concentration tested)"
same,half-life at 0.5 μM,[8],9.19 min
same,ΔT m,PL^pro,6.15 °C and 6.1 ± 0.4 °C
same,half-life at 2 μM,Plasma stability,365 min
same,chromatographic logD,physchem [9],4.7
same,EC50,"SARS-CoV-2 [10]; Severe acute respiratory syndrome coronavirus 2, HeLa-ACE2, read-out: CoV-2 EC50",3.71 µM
same,AC50,"SARS-CoV-2 [10]; Severe acute respiratory syndrome coronavirus 2, HeLa-ACE2, read-out: Log AC50 (converted)",3.71 µM
same,EC50,"SARS-CoV-2 [10]; Severe acute respiratory syndrome coronavirus 2, HeLa-ACE2, read-out: SARS-CoV-2 EC50",3.7 ± 0.5 µM
same,inhibition at 9.61 µM,"SARS-CoV-2 [10]; Severe acute respiratory syndrome coronavirus 2, HeLa-ACE2, read-out: inhibition in the highest concentration tested",> 50%
same,EC50,"SARS-CoV-2 [10]; Severe acute respiratory syndrome coronavirus 2, HeLa-ACE2, read-out: qAC50",3.71 µM
same,microsomal CLint at 0.5 μM,in vitro [11],184 µL/min/mg
same,Data Mode,HeLa-ACE2 cells [12]; [21],increasing (weakly active)
same,S0,HeLa-ACE2 cells [12]; [22],-15.6144
same,Sinf,HeLa-ACE2 cells [12]; [22],100
same,nHill,HeLa-ACE2 cells [12]; [22],0.852
same,"HeLa-ACE2 Total Cell Efficacy (Sinf, note + or -)",HeLa-ACE2 cells [12]; infected HeLa-ACE2 total cell count,0.852
same,"Papp at 5 h, 10 μM",in vitro [13],0.3 ×10⁻⁶ cm/s
same,solubility kinetic at 24 h,"physchem [14]; pH 2, aqueous buffer",> 24.4 µg/mL
same,solubility kinetic at 24 h,"physchem [14]; pH 7.4, aqueous buffer",> 13.4 µg/mL
"N=C(N)NCCCCC(=O)Nc1cc(C(F)(F)F)cc(NC(=O)c2cc(C(=O)Nc3cc(C(F)(F)F)cc(NC(=O)CCCCNC(=N)N)c3O[C@@H]3CCNC3)ncn2)c1O[C@@H]1CCNC1 [Brilacidin, reference compound]",inhibition of SARS-CoV-2 PL^pro,SARS-CoV-2 PL^pro,≥ 80%
same,decrease of viral replication (viral load by RT-PCR),SARS-CoV-2 [15],over 50%
CC[C@@H](C)N1CCC(C(=O)NCc2ccc(OC)cc2)CC1 (racemic) [Compound 14],metabolic stability (in words),[16],improved stability
same,microsomal CLint at 0.5 μM,in vitro [4],65.6 µL/min/mg
same,plasma stability remaining 60 min,[5],30.29%
same,half-life at 0.5 μM,[6],301 min
same,half-life at 0.5 μM,[8],42.3 min
same,ΔT m,PL^pro,1.20 ± 0.06 °C
same,half-life at 2 μM,Plasma stability,224 min
same,chromatographic logD,physchem [9],1.61
same,microsomal CLint at 0.5 μM,in vitro [11],< 12 µL/min/mg
same,"Papp at 5 h, 10 μM",in vitro [13],0.77 ×10⁻⁶ cm/s
same,solubility kinetic at 24 h,"physchem [14]; pH 2, aqueous buffer",> 18.4 µg/mL
same,solubility kinetic at 24 h,"physchem [14]; pH 7.4, aqueous buffer",> 18.3 µg/mL
COc1ccc(CNC(=O)C2CCN([C@@H](C)c3ccccc3)CC2)cc1 [Compound 2],metabolic stability (in words),[16],improved stability
same,microsomal CLint at 0.5 μM,in vitro [4],300 µL/min/mg
same,plasma stability remaining 60 min,[5],91.46%
same,half-life at 0.5 μM,[6],114 min
same,half-life at 0.5 μM,[8],9.25 min
same,ΔT m,PL^pro,1.5 °C and 1.50 ± 0.05 °C
same,chromatographic logD,physchem [9],3
same,microsomal CLint at 0.5 μM,in vitro [11],24.4 µL/min/mg
same,"Papp at 5 h, 10 μM",in vitro [13],1.47 ×10⁻⁶ cm/s
same,solubility kinetic at 24 h,"physchem [14]; pH 2, aqueous buffer",> 22.1 µg/mL
same,solubility kinetic at 24 h,"physchem [14]; pH 7.4, aqueous buffer",> 22 µg/mL
C[C@@H](c1cccc2ccccc12)N1CCC(C(=O)NCC2CCCCC2)CC1 (racemic) [Compound 11],Data Mode,[1],inactive
same,qAC50,[1],> 3.984e-5
same,CC50 at 24 h,in vitro [2]; [17],> 39.8 µM
same,CC50 at 24 h,in vitro [2]; [18],> 39.8 µM
same,EC50,HeLa-ACE2 cells [3]; [19],> 9.61 µM
same,EC50,"HeLa-ACE2 cells [3]; HeLa-ACE2, read-out: qAC50",> 9.61 µM
same,microsomal CLint at 0.5 μM,in vitro [4],354 µL/min/mg
same,plasma stability remaining 60 min,[5],47.10%
same,half-life at 0.5 μM,[6],13.2 min
same,Data Mode,SARS-CoV-2 [7],inactive
same,half-life at 0.5 μM,[8],7.84 min
same,ΔT m,PL^pro,0.90 ± 0.07 °C
same,half-life at 2 μM,Plasma stability,315 min
same,chromatographic logD,physchem [9],4.8
same,EC50,"SARS-CoV-2 [10]; Severe acute respiratory syndrome coronavirus 2, HeLa-ACE2, read-out: SARS-CoV-2 EC50, HeLa-ACE2 cells, average of triplicates",> 9.61 µM
same,EC50,"SARS-CoV-2 [10]; Severe acute respiratory syndrome coronavirus 2, HeLa-ACE2, read-out: qAC50, Hela-ACE2 % Positive SARS-CoV-2, relation in column qAC50 Mode, unit inferred",> 9.61 µM
same,microsomal CLint at 0.5 μM,in vitro [11],209 µL/min/mg
same,Data Mode,HeLa-ACE2 cells [12]; [21],inactive
same,"Papp at 5 h, 10 μM",in vitro [13],0.35 ×10⁻⁶ cm/s
same,solubility kinetic at 24 h,"physchem [14]; pH 2, aqueous buffer",> 23.1 µg/mL
same,solubility kinetic at 24 h,"physchem [14]; pH 7.4, aqueous buffer",6.15 µg/mL

# Reference: article PMC12461331, “Screening of Medicines for Malaria Venture Open Boxes Identifies Potent SARS-CoV‑2 Papain-like Protease (PL^pro) Inhibitors” (ACS Omega, 2025)
